Results: patent US20170022171A1, “2,5-DISUBSTITUTED CYCLOPENTANECARBOXYLIC ACIDS AND THEIR USE” (Bayer Pharma Aktiengesellschaft, priority 2014, published 2017)

Legend:
Type in all cases: biochemical
MMP-1 = target: T1, MMP-1 (Homo sapiens, UniProt P03956); experiment: In vitro MMP-1 inhibition test
T1 construct: purchased R&D Systems 901-MP
T1 sequence (P03956 100-469): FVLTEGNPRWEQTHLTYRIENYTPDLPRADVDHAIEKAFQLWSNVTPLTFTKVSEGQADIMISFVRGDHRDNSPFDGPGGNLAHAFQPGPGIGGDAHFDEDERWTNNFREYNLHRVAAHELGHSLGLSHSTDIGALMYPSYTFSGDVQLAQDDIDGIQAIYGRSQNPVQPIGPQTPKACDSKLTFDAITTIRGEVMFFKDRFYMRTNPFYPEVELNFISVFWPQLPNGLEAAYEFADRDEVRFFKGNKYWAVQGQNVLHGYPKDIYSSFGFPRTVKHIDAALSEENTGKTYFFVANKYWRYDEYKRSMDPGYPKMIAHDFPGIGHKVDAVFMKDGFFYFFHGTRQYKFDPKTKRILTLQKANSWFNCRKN
From the text: (§1) The MMP-mediated amidolytic cleavage of a suitable peptide substrate leads to an increase in fluorescent light here too. The signal intensity of the fluorescent light is directly proportional to the enzyme activity. The active concentration of a test compound at which half the enzyme is inhibited (50% signal intensity of the fluorescent light) is reported as the IC50 value.
(§2) Recombinant MMP-1 (from R&D Systems, 901-MP) is chemically activated in accordance with the manufacturer's instructions using APMA. 1 μl of the test compound to be analysed (as a solution in DMSO, suitable concentrations, for example, 1 nM to 30 μM) is pipetted into 24 μl of activated enzyme (final concentration, for example, 2 nM) in reaction buffer (50 mM Tris/HCl pH 7.5, 10 mM CaCl2, 150 mM NaCl, 0.05% Brij®-35) in a white 384-hole microtiter plate (MTP). The enzymatic reaction is started by adding the intramolecularly quenched Mca-Pro-Leu-Gly-Leu-Dpa(Dnp)-Ala-Arg-NH2 substrate (final concentration, for example, 10 μM; R&D Systems, ES-001), so as to result in a total test volume of 50 μl. The course of the MMP-1 reaction is measured by measuring the fluorescence intensity (excitation 320 nm, emission 410 nm) over a suitable period of time (for example over 120 min at a temperature of 32° C.).

MMP-2 = target: T2, MMP-2 (Homo sapiens, UniProt P08253); experiment: In vitro MMP-2 inhibition test
T2 construct: purchased R&D Systems 902-MP
T2 sequence (P08253 110-660): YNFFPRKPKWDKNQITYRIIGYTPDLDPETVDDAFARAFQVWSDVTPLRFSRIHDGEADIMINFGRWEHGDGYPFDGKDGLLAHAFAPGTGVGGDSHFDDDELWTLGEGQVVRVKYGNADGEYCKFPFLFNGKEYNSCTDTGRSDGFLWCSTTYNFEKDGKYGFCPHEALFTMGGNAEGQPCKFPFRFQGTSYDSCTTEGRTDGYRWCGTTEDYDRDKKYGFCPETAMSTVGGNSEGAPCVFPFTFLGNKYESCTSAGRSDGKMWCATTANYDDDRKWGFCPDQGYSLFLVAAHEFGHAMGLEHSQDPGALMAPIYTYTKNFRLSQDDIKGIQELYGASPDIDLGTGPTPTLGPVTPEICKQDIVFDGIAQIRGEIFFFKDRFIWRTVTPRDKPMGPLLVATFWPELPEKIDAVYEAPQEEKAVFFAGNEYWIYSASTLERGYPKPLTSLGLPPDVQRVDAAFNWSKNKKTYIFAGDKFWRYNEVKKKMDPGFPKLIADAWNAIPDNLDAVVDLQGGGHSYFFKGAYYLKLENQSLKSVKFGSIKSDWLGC
From the text: as §1
as §2, with “MMP-2” for “MMP-1”, “902-MP)” for “901-MP)”

MMP-16 = target: T3, MMP-16 (Homo sapiens, UniProt P51512); experiment: In vitro MMP-16 inhibition test
T3 construct: purchased R&D Systems 1785-MP
T3 sequence (P51512 120-564 limits assumed): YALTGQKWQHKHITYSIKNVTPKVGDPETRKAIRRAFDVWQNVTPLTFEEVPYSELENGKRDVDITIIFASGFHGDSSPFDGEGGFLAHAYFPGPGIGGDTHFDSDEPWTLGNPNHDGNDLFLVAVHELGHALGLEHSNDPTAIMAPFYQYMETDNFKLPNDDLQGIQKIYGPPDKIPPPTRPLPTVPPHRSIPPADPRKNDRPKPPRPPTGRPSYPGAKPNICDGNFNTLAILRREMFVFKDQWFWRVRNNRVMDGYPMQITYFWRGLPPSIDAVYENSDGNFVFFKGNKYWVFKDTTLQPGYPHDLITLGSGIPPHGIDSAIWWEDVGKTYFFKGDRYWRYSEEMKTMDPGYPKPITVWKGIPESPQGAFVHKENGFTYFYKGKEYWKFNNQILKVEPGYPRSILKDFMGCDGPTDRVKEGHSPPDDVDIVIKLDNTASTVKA
From the text: as §1
Recombinant MMP-16 (from R&D Systems, 1785-MP) is enzymatically activated in accordance with the manufacturer's instructions using recombinant furin (from R&D Systems, 1503-SE). 1 μl of the test compound to be analysed (as a solution in DMSO, suitable concentrations e.g. 1 nM to 30 μM) is pipetted into 24 μl of activated enzyme (final concentration e.g. 1 nM) in reaction buffer (50 mM Tris/HCl pH 7.5, 10 mM CaCl2, 150 mM NaCl, 0.05% Brij®-35) in a white 384-hole microtiter plate (MTP). The enzymatic reaction is started by adding the intramolecularly quenched Mca-Lys-Pro-Leu-Gly-Leu-Dpa(Dnp)-Ala-Arg-NH2 substrate (final concentration, for example, 5 μM; R&D Systems, ES-010), so as to result in a total test volume of 50 The course of the MMP-16 reaction is measured by measuring the fluorescence intensity (excitation 320 nm, emission 410 nm) over a suitable period of time (for example over 120 min at a temperature of 32° C.).

IC50 (MMP-1) [µM] | IC50 (MMP-2) [µM] | IC50 (MMP-16) [µM] | Structure (SMILES)
5.7 | 0.1 | 1.7 | Cc1ccc2nnn(C[C@@H]3CC[C@H](C(=O)c4ccc(OCc5ccccc5)cc4)[C@H]3C(=O)O)c(=O)c2c1 (racemic) [Example 91, (+/−)-(1RS,2RS,5SR)-2-[4-(Benzyloxy)benzoyl]-5-[(6-methyl-4-oxo-1,2,3-benzotriazin-3(4H)-yl)methyl]cyclopentanecarboxylic acid]
> 40 | 2.3 | 4.5 | Cc1cccc(COc2ccc(C(=O)[C@H]3CC[C@@H](Cn4nnc5ccc(C)cc5c4=O)[C@@H]3C(=O)O)cc2)c1 (racemic) [Example 97, (+/−)-(1RS,2RS,5SR)-2-{4-[(3-Methylbenzyl)oxy]benzoyl}-5-[(6-methyl-4-oxo-1,2,3-benzotriazin-3(4H)-yl)methyl]cyclopentanecarboxylic acid]
> 40 | 0.54 | 0.97 | Cc1ccc2nnn(C[C@@H]3CC[C@H](C(=O)c4ccc(OCc5cccc(C(F)(F)F)c5)cc4)[C@H]3C(=O)O)c(=O)c2c1 (racemic) [Example 100, (+/−)-(1RS,2SR,5RS)-2-[(6-Methyl-4-oxo-1,2,3-benzotriazin-3(4H)-yl)methyl]-5-(4-{[3-(trifluoromethyl)benzyl]oxy}benzoyl)cyclopentanecarboxylic acid]
9.7 | 0.37 | 14 | Cc1ccc2nnn(C[C@@H]3CC[C@H](C(=O)c4ccc(OCc5cccc(Cl)c5)cc4)[C@H]3C(=O)O)c(=O)c2c1 (racemic) [Example 103, (+/−)-(1RS,2RS,5SR)-2-{4-[(3-Chlorobenzyl)oxy]benzoyl}-5-[(6-methyl-4-oxo-1,2,3-benzotriazin-3(4H)-yl)methyl]cyclopentanecarboxylic acid]
12 | 0.27 | 0.19 | COc1cccc(COc2ccc(C(=O)[C@H]3CC[C@@H](Cn4nnc5ccc(C)cc5c4=O)[C@@H]3C(=O)O)cc2)c1 (racemic) [Example 106, (+/−)-(1RS,2RS,5SR)-2-{4-[(3-Methoxybenzyl)oxy]benzoyl}-5-[(6-methyl-4-oxo-1,2,3-benzotriazin-3(4H)-yl)methyl]cyclopentanecarboxylic acid]
> 40 | 1.1 | 3.2 | Cc1ccc2nnn(C[C@@H]3CC[C@H](C(=O)c4ccc(OCc5cccc(OC(F)(F)F)c5)cc4)[C@H]3C(=O)O)c(=O)c2c1 (racemic) [Example 109, (+/−)-(1RS,2SR,5RS)-2-[(6-Methyl-4-oxo-1,2,3-benzotriazin-3(4H)-yl)methyl]-5-(4-{[3-(trifluoromethoxy)benzyl]oxy}benzoyl)cyclopentanecarboxylic acid]
24 | 0.17 | 11 | CCCCCOc1ccc(C(=O)[C@H]2CC[C@@H](Cn3nnc4ccc(C)cc4c3=O)[C@@H]2C(=O)O)cc1 (racemic) [Example 123, (+/−)-(1RS,2SR,5RS)-2-[(6-Methyl-4-oxo-1,2,3-benzotriazin-3(4H)-yl)methyl]-5-[4-(pentyloxy)benzoyl]cyclopentanecarboxylic acid]
3.3 | 0.08 | 0.17 | O=C(O)[C@@H]1[C@@H](Cn2nnc3ccc(C(F)(F)F)cc3c2=O)CC[C@H]1C(=O)c1ccc(OCc2ccc(F)cc2)cc1 (single isomer, unassigned) [Example 13, (+)-(1RS,2RS,5SR)-2-{4-[(4-Fluorobenzyl)oxy]benzoyl}-5-{[4-oxo-6-(trifluoromethyl)-1,2,3-benzotriazin-3(4H)-yl]methyl}cyclopentanecarboxylic acid]
7.1 | 0.97 | 1.7 | Cc1cccc(COc2ccc(C(=O)[C@@H]3CC[C@H](Cn4nnc5ccc(C(F)(F)F)cc5c4=O)[C@H]3C(=O)O)cc2)c1 (single isomer, unassigned) [Example 16, (+)-(1RS,2RS,5SR)-2-{4-[(3-Methylbenzyl)oxy]benzoyl}-5-{[4-oxo-6-(trifluoromethyl)-1,2,3-benzotriazin-3(4H)-yl]methyl}cyclopentanecarboxylic acid]
37 | 3.8 | 5.4 | O=C(O)[C@@H]1[C@@H](Cn2nnc3ccc(C(F)(F)F)cc3c2=O)CC[C@H]1C(=O)c1ccc(OCc2cccc(C(F)(F)F)c2)cc1 (single isomer, unassigned) [Example 19, (+)-(1RS,2SR,5RS)-2-{[4-Oxo-6-(trifluoromethyl)-1,2,3-benzotriazin-3(4H)-yl]methyl}-5-(4-{[3-(trifluoromethyl)benzyl]oxy}benzoyl)cyclopentanecarboxylic acid]
24 | 1.6 | 2.2 | O=C(O)[C@@H]1[C@@H](Cn2nnc3ccc(C(F)(F)F)cc3c2=O)CC[C@H]1C(=O)c1ccc(OCc2cccc(Cl)c2)cc1 (single isomer, unassigned) [Example 23, (+)-(1RS,2RS,5SR)-2-{4-[(3-Chlorobenzyl)oxy]benzoyl}-5-{[4-oxo-6-(trifluoromethyl)-1,2,3-benzotriazin-3(4H)-yl]methyl}cyclopentanecarboxylic acid]
2.3 | 0.079 | 0.29 | O=C(O)[C@@H]1[C@@H](Cn2nnc3ccc(C(F)(F)F)cc3c2=O)CC[C@H]1C(=O)c1ccc(OCc2ccc(Cl)cc2)cc1 (single isomer, unassigned) [Example 25, (+)-(1RS,2RS,5SR)-2-{4-[(4-Chlorobenzyl)oxy]benzoyl}-5-{[4-oxo-6-(trifluoromethyl)-1,2,3-benzotriazin-3(4H)-yl]methyl}cyclopentanecarboxylic acid]
2.1 | 0.45 | 0.3 | O=C(O)[C@@H]1[C@@H](Cn2nnc3ccc(C(F)(F)F)cc3c2=O)CC[C@H]1C(=O)c1ccc(OCc2cccc(N3CCOC3=O)c2)cc1 (single isomer, unassigned) [Example 35, (+)-(1RS,2RS,5SR)-2-(4-{[3-(2-Oxo-1,3-oxazolidin-3-yl)benzyl]oxy}benzoyl)-5-{[4-oxo-6-(trifluoromethyl)-1,2,3-benzotriazin-3(4H)-yl]methyl}cyclopentanecarboxylic acid]
